From patent US20230106506A1, “NOVEL PqsR INVERSE AGONISTS” (Helmholtz-Zentrum Fur Infektionsforschung GmbH, priority 2020, published 2023)
Like-named read-outs stand apart in the source and are kept apart here.

Tests used:
[1] = system: P. aeruginosa pyocyanin production; conditions: in cellulo, literature value; read-out: inhibition of virulence factor pyocyanin production: IC50; cited from earlier work
[2] = system: production of signal molecules HHQ and PQS; conditions: cited from earlier work
[3] = system: P. aeruginosa pyocyanin production; assay: Pyocyanin assay; assay type: cell-based, P. aeruginosa strain PA14; conditions: Pseudomonas aeruginosa, PA14, 16 h, read-out: IC50-value towards pyocyanin production
Method: Inhibition of P. aeruginosa pyocyanin production by compounds was determined photometrically as described before. In short, an overnight culture of PA14 in PPGAS medium was washed, diluted in medium to a start OD600 of 0.02, and incubated for 16 h (37° C., 200 rpm, relative humidity 75%) in the presence of test compounds. Then, cultures were extracted with chloroform and re-extracted with 0.2 M HCl. Protonated red colored pyocyanin was determined by measuring OD520 and normalizing to OD600.

PqsR = molecular target: T1, PqsR (Pseudomonas aeruginosa, UniProt Q9I4X0); assay: PqsR reporter gene assay in E. coli (β-galactosidase); assay type: cell-based
T1 construct: transfected with pEAL08-2 plasmid encoding pqsR under control of promoter tac; expressed in transfected cells; host or cells: Escherichia coli DH5alpha carrying pEAL08-2
Method: Inhibition of pqsR-dependent gene expression of test compounds was determined in an E. coli based β-galactosidase reporter gene assay. Escherichia coli DH5α was transfected with pEAL08-2 plasmid encoding pqsR under control of promoter tac and β-galactosidase reporter gene lacZ under control of promoter pqsA. Antagonistic effects of compounds were evaluated in the presence of/in competition to 50 nM PQS. A positive control was used to ensure the reliability of individual assays. First, PQS was diluted in methanol and added to the wells of a glass coated 96-deep-well plate, and the solvent was evaporated. Then, compounds were added in 5 μL DMSO to final concentrations of 0.001-10 μM. Overnight cultures of E. coli DH5a×pEAL08-2 were diluted 1:100 in LB medium with ampicillin (50 μg/ml) and incubated at 37° C. with shaking until it reached an OD600 of 0.2. Finally, 995 μL of culture was added to each well and the β-galactosidase activity was determined by ortho-nitrophenyl-β-galactoside conversion in permeabilized cells after a 2.5 h incubation period (37° C., 180 rpm). OD600, OD420, and OD550 were measured using POLARstar Omega (BMG Labtech, Ortenberg, Germany), and the activity was expressed as ratio of the slope of β-galactosidase activity between basal control (no PQS) and solvent control, IC50 values of antagonists were determined by variation of the concentration of the test compounds.

[4] = Kinetic turbidimetric aqueous solubility; assay type: physicochemical; conditions: aqueous buffer, kinetic from dmso stock; PBS buffer, final DMSO 2%, absorbance 620 nm; read-out: Kinetic Turbidimetric Aqueous Solubility at room temperature for 5 min
Method: Kinetic Turbidimetric Aqueous Solubility at room temperature for 5 min. […] Data was analyzed by fitting a four parameter sigmoidal function to the measured and normalized absorbances and AUC calculation providing access to Log S (decadic logarithm of the solubility).

[5] = Metabolic stability in mouse liver microsomes (MLM); assay type: in vitro ADME; conditions: 1 μM compound, 0.5 mg/mL MLM, 1 mM NADPH, 37° C., read-out: half-life (t1/2) towards MLM
Method: For the evaluation of phase I metabolic stability, the compound (1 μM) was incubated with 0.5 mg/mL MLM (Corning) and 1 mM NADPH at 37° C. for 0, 5, 10, 15 and 30 min. The metabolic stability of Verapamil, Diphenhydramine and Benzydamine (1 μM each) were determined in parallel to confirm the enzymatic activity of the MLM. The incubation was stopped by addition of 2 volumes of acetonitrile containing internal standard (1 μM Leucine Enkephaline). Samples were centrifuged (15 min, 3,500 rpm). Concentration of the remaining test compound at the different time points was analyzed by HPLC-MS/MS and used to determine half-life (t1/2).

T1 sequence (Q9I4X0 whole entry): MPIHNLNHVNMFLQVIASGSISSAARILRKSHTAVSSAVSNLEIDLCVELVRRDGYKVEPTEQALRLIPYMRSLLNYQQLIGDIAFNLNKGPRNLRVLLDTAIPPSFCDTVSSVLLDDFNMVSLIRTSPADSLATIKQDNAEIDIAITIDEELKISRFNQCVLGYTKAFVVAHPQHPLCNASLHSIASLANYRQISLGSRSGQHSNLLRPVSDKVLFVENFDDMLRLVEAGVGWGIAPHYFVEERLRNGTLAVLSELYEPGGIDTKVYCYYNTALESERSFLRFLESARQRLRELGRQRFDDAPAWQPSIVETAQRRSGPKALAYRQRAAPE

Row | SMILES | IC50 [1] | reduction of HHQ production ([2]; at 15 μM) | reduction of PQS production ([2]; at 15 μM) | IC50 [3] | IC50 (PqsR) | solubility at 5 min [4] | half-life at 1 µM [5] | IC50 ([2]; QS inhibitor targeting the enzyme PqsA)
1 | CCCCCCCc1[nH]c2ccc([N+](=O)[O-])cc2c(=O)c1C(N)=O [2-heptyl-6-nitro-4-oxo-1,4-dihydroquinoline-3-carboxamide] | 2000 nM | 54% | 37% |  |  |  |  | 
2 | FC(F)(F)c1cc(NCc2cn(-c3ccc(Oc4ccccc4)cc3)nn2)cc(-c2cn[nH]c2)n1 [Compound 01] |  |  |  | 101 to 200 nM | 51 to 250 nM | > 25 µM |  | 
3 | FC(F)(F)c1cc(NCc2cn(-c3ccc(Oc4ccccc4)cc3)nn2)cc(-n2ccnc2)n1 [Compound 02, 2-(1H-Imidazol-1-yl)-N-((1-(4-phenoxyphenyl)-1H-1,2,3-triazol-4-yl)methyl)-6-(trifluoromethyl)pyridin-4-amine] |  |  |  | 201 to 500 nM | ≤ 50 nM | > 25 µM |  | 
4 | FC(F)(F)c1cc(NCc2cn(-c3ccc(Oc4ccccc4)cc3)nn2)cc(-n2cncn2)n1 [Compound 03, N-((1-(4-Phenoxyphenyl)-1H-1,2,3-triazol-4-yl)methyl)-2-(1H-1,2,4-triazol-1-yl)-6-(trifluoromethyl)pyridin-4-amine] |  |  |  | 201 to 500 nM | ≤ 50 nM | > 25 µM | 1.02 to 1.67 h | 
5 | Fc1ccccc1Oc1ccc(-n2cc(CNc3cc(-c4cn[nH]c4)nc(C(F)(F)F)c3)nn2)cc1 [Compound 04, N-((1-(4-(2-Fluorophenoxy)phenyl)-1H-1,2,3-triazol-4-yl)methyl)-2-(1H-pyrazol-4-yl)-6-(trifluoromethyl)pyridin-4-amine] |  |  |  | 101 to 200 nM | ≤ 50 nM | > 10 µM | 0.5 to 1 h | 
6 | Nc1cccc(F)c1C(=O)O [Compound 6FABA] |  |  |  |  |  |  |  | ~100000 nM
7 | CC(C)Oc1ccc(-n2cc(CNc3cc(-c4cn[nH]c4)nc(C(F)(F)F)c3)nn2)cc1Cl [Compound 07, N-((1-(3-Chloro-4-isopropoxyphenyl)-1H-1,2,3-triazol-4-yl)methyl)-2-(1H-pyrazol-4-yl)-6-(trifluoromethyl)pyridin-4-amine] |  |  |  | ≤ 100 nM | ≤ 50 nM | > 25 µM | 0.5 to 1 h | 
8 | CC(C)Oc1ccc(-n2cc(CNc3cc(Cl)nc(-c4cn[nH]c4)c3)nn2)cc1Cl [Compound 08, 2-Chloro-N-((1-(3-chloro-4-isopropoxyphenyl)-1H-1,2,3-triazol-4-yl)methyl)-6-(1H-pyrazol-4-yl)pyridin-4-amine] |  |  |  | 201 to 500 nM | ≤ 50 nM | > 25 µM |  | 
9 | CC(C)Oc1ccc(-n2cc(CNc3cc(C#N)nc(-c4cn[nH]c4)c3)nn2)cc1Cl [Compound 09, 4-(((1-(3-Chloro-4-isopropoxyphenyl)-1H-1,2,3-triazol-4-yl)methyl)amino)-6-(1H-pyrazol-4-yl)picolinonitrile] |  |  |  | 201 to 500 nM | ≤ 50 nM | > 10 µM |  | 
10 | Cn1cc(-c2cc(NCc3cn(-c4ccc(Oc5ccccc5)cc4)nn3)cc(C(F)(F)F)n2)cn1 [Compound 10, 2-(1-Methyl-1H-pyrazol-4-yl)-N-((1-(4-phenoxyphenyl)-1H-1,2,3-triazol-4-yl)methyl)-6-(trifluoromethyl)pyridin-4-amine] |  |  |  | 201 to 500 nM | ≤ 50 nM | > 25 µM | 0.5 to 1 h | 
11 | CC(C)Oc1ccc(-c2ncc(CNc3cc(-c4cn[nH]c4)nc(C(F)(F)F)c3)s2)cc1 [Compound 11, N-((2-(4-Isopropoxyphenyl)thiazol-5-yl)methyl)-2-(1H-pyrazol-4-yl)-6-(trifluoromethyl)pyridin-4-amine] |  |  |  | ≤ 100 nM | ≤ 50 nM | > 10 µM | 0.5 to 1 h | 
12 | CC(C)Oc1ccc(-c2ncc(CNc3cc(C#N)nc(-c4cn[nH]c4)c3)s2)cc1 [Compound 12, 4-(((2-(4-Isopropoxyphenyl)thiazol-5 yl)methyl)amino)-6-(1H-pyrazol-4-yl)picolinonitrile] |  |  |  | ≤ 100 nM | ≤ 50 nM | > 10 µM | 0.5 to 1 h | 
13 | CC(C)Oc1ccc(-c2ncc(CNc3cc(-c4cnn(C)c4)nc(C(F)(F)F)c3)s2)cc1 [Compound 13, N-((2-(4-Isopropoxyphenyl)thiazol-5-yl)methyl)-2-(1-methyl-1H-pyrazol-4-yl)-6-(trifluoromethyl)pyridin-4-amine] |  |  |  | 201 to 500 nM | 51 to 250 nM | > 10 µM | 0.5 to 1 h | 
14 | CC(C)Oc1ccc(-c2ncc(CNc3cc(-c4cc[nH]n4)nc(C(F)(F)F)c3)s2)cc1 [Compound 14, N-((2-(4-Isopropoxyphenyl)thiazol-5-yl)methyl)-2-(1H-pyrazol-3-yl)-6-(trifluoromethyl)pyridin-4-amine] |  |  |  | 201 to 500 nM | 51 to 250 nM | > 10 µM | > 1.67 h | 
15 | CC(C)Oc1ccc(-c2ncc(CNc3cc(-n4ccnc4)nc(C(F)(F)F)c3)s2)cc1 [Compound 15, 2-(1H-Imidazol-1-yl)-N-((2-(4-isopropoxyphenyl)thiazol-5-yl)methyl)-6-(trifluoromethyl)pyridin-4-amine] |  |  |  | ≤ 100 nM | ≤ 50 nM | > 10 µM | 0.5 to 1 h | 
16 | CC(C)Oc1ccc(-c2ncc(CNc3cc(-n4ccnc4)nc(C(F)(F)F)c3)s2)cc1Cl [Compound 16, N-((2-(3-Chloro-4-isopropoxyphenyl)thiazol-5-yl)methyl)-2-(1H-imidazol-1-yl)-6-(trifluoromethyl)pyridin-4-amine] |  |  |  | 101 to 200 nM | 51 to 250 nM |  | > 1.67 h | 
17 | CC(C)Oc1ccc(-c2ncc(CNc3cc(-n4cncn4)nc(C(F)(F)F)c3)s2)cc1 [Compound 17, N-((2-(4-Isopropoxyphenyl)thiazol-5-yl)methyl)-2-(1H-1,2,4-triazol-1-yl)-6-(trifluoromethyl)pyridin-4-amine] |  |  |  | ≤ 100 nM | 51 to 250 nM | > 50 µM | 1.02 to 1.67 h | 
18 | CC(C)Oc1ccc(-c2ncc(CNc3cc(-n4cncn4)nc(C(F)(F)F)c3)s2)cc1Cl [Compound 18, N-((2-(3-Chloro-4-isopropoxyphenyl)thiazol-5-yl)methyl)-2-(7H-1,2,4-triazol-1-yl)-6-(trifluoromethyl)pyridin-4-amine] |  |  |  | ≤ 100 nM | ≤ 50 nM |  | > 1.67 h | 
19 | CC(C)Oc1ccc(-c2ncc(CNc3cc(-c4cn[nH]c4)nc(C(F)(F)F)c3)cn2)cc1Cl [Compound 48, N-((2-(3-Chloro-4-isopropoxyphenyl)pyrimidin-5-yl)methyl)-2-(1H-pyrazol-4-yl)-6-(trifluoromethyl)pyridin-4-amine] |  |  |  | 101 to 200 nM | ≤ 50 nM | > 25 µM | > 1.67 h | 
20 | Cn1cc(-c2cc(SCc3nc4cc(Oc5ccccc5)ccc4[nH]3)cc(C(F)(F)F)n2)cn1 [Compound 65, 2-(((2-(1-Methyl-1H-pyrazol-4-yl)-6-(trifluoromethyl)pyridin-4-yl)thio)methyl)-5-phenoxy-1H-benzo[d]imidazole] |  |  |  |  | 51 to 250 nM | > 10 µM |  | 
21 | FC(F)(F)c1cc(SCc2nc3cc(Oc4ccccc4)ccc3[nH]2)cc(-n2cncn2)n1 [Compound 66, 2-(((2-(1H-1,2,4-Triazol-1-yl)-6-(trifluoromethyl)pyridin-4-yl)thio)methy)-5-phenoxy-1H-benzo[d]imidazole] |  |  |  | 101 to 200 nM | ≤ 50 nM | > 10 µM |  | 
22 | CC(C)Oc1ccc(-n2cc(CNc3cc(-c4cccnc4)nc(C(F)(F)F)c3)nn2)cc1Cl [Compound 67, N-((1-(3-Chloro-4-isopropoxyphenyl)-1H-1,2,3-triazol-4-yl)methyl)-6-(trifluoromethyl)-[2,3′-bipyridin]-4-amine] |  |  |  |  | 51 to 250 nM |  |  | 
